The record followed here is patent US9156837B2, “Heterocyclic compound” (Takeda Pharmaceutical Company Limited, priority 2011, dated 2015).

Each structure is given as a SMILES string.

Test [1] deals with T1, RORγt (Homo sapiens, UniProt P51449).
T1 sequence (P51449 1-497 isoform P51449-2): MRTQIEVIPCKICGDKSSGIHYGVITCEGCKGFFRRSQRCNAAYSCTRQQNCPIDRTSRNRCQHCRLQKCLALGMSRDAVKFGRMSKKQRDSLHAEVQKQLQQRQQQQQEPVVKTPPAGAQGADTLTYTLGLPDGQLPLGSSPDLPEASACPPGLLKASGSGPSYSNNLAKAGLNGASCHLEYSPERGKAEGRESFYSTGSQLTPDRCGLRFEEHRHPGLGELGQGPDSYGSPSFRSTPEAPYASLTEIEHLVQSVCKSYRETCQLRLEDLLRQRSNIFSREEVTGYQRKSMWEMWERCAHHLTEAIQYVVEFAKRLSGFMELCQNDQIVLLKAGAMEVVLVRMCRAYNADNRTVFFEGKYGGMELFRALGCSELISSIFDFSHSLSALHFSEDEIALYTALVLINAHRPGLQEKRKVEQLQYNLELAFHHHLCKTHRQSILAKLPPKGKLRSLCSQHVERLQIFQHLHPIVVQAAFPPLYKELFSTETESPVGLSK
The test can be described thus: RORγt binding test (TR-FRET, fluorescent-labeled cholesterol). As to conditions: test compound 1 μM, histidine-tagged RORγt, read-out: binding inhibitory rate of fluorescent-labeled cholesterol to RORγt. The protocol: The binding activity of the test compound to RORγt was measured by a time resolved fluorescence resonance energy transfer method (TR-FRET) utilizing histidine-tagged RORγt, fluorescent-labeled cholesterol (BODIPY-cholesterol, AVIVA), and terbium-labeled anti-histidine tag antibody (Invitrogen). First, a test compound diluted with an assay buffer (20 mM Tris-HCl (pH 7.5), 100 mM NaCl, 1 mM DTT, 0.1% BSA) was added to a 384 well plate by 3 μL. Then, RORγt diluted with an assay buffer to 240 nM was added by 3 μL, after which fluorescent-labeled cholesterol diluted with the assay buffer to 12 μM was added by 3 μL, and the mixture was stood at room temperature for 20 min. Thereafter, a terbium-labeled anti-histidine tag antibody diluted with the assay buffer to 8 nM was added by 3 μL. The mixture was stood at room temperature for 20 min, and fluorescence intensity (excitation wavelength 320 nm, fluorescence wavelength 520 nm, delay time 100 microseconds) was measured by Envision (PerkinElmer).
The results (binding inhibitory rate of fluorescent-labeled cholesterol to RORγt at test compound 1 μM) measured by the above-mentioned method are shown in Table 2.
(In TR-FRET formats the signal depends on donor and acceptor labels being close together.)

Test [2] concerns the target T1, RORγt. Put plainly: Cofactor recruitment test (Alpha Screen, biotinylated SRC-1 peptide). The test is classed as biochemical. As to conditions: test compound 1 μM, RORγt and biotinylated SRC-1 peptide, read-out: signal value inhibitory rate. The protocol: Cofactor recruitment test was performed by Alpha Screen (Histidine Detection Kit, PerkinElmer) method. First, a test compound was diluted with an assay buffer (50 mM Tris-HCl (pH 7.5), 50 mM KCl, 1 mM DTT, 0.1% BSA) and added to a 384 well plate by 5 μL. Then, RORγt diluted with an assay buffer to 125 nM was added by 10 μL each, after which solutions of 25 nM biotinylated SRC-1 peptide (biotin-[…]), 12.5 μg/mL acceptor beads and 12.5 μg/mL donor beads prepared with the assay buffer were added by 10 μL each. The mixture was stood in a dark place for 1 hr, and the signal value was measured by Envision (PerkinElmer).

Test [3] has as its target T1, RORγt. The test can be described thus: Jurkat reporter test (human IL-17 ROR response element luciferase). The test is classed as cell-based. The conditions noted are these: test compound 3 μM; Jurkat cells transfected with IL-17 ROR response element luciferase reporter and RORγt vector; cultured overnight; read-out: luminescence level inhibitory rate. As to the method:
The Jurkat cells used for the reporter test were cultured in a culture medium (RPMI (Invitrogen), 10% FCS (AusGeneX), 100 U/mL penicillin, 100 μg/mL streptomycin). On the day of the test, 4×10^7 cells were recovered by a centrifugal operation (1000 rpm, 5 min.) and suspended in PBS (phosphate buffered saline) (Invitrogen). Thereafter, the cells were recovered again by a centrifugal operation, and suspended in 2 mL of R buffer (NEON transfection kit, Invitrogen). Then, a reporter vector 53 μg wherein a human IL-17 ROR response element was inserted into the upstream of luciferase of pGL 4.28 (Promega), and a vector (27 μg) wherein RORγt sequence was inserted into the downstream of CMV promoter were added to the cell suspension. Gene transfer was performed by Electroporation apparatus (NEON, Invitrogen) under the conditions of pulse voltage 1350 V, interval 10 milliseconds, number of times 3. The cells after gene transfer were suspended in 40 mL of a reaction medium (RPMI, 10% Lipid reduced FCS (HyClone), 10 mM HEPES (pH 7.5), 100 U/mL penicillin, 100 μg/mL streptomycin, 5 μM lovastatin), and plated in a 96 well plate by 90 μL. A test compound diluted with the reaction medium was added by 10 μL, and the cells were cultured overnight in an incubator. Bright-Glo (Promega) was added by 100 μL, and the mixture was stirred at room temperature for 10 min, and the luminescence level was measured by Envision (PerkinElmer).
The results (luminescence level inhibitory rate at test compound 3 μM) measured by the above-mentioned method are shown in Table 4.
Background: In a reporter assay the amount or activity of a reporter protein is the signal.

Test [4] concerns CD4 positive naive T cells (differentiation into Th17 cells). Put plainly: Mouse Th17 cell differentiation induction test. The format is cell-based. The conditions noted are these: 96 h; test compound 10 μM; BALB/c mouse CD4 positive naive T cells; 4 days; ELISA; read-out: inhibitory rate (IL-17A in culture supernatant, Th17 differentiation). The protocol:
CD4 positive naive T cells were collected from the spleen cells of BALB/c mice (female, 8-11w) using CD4+CD62L+ T Cell Isolation kit II (Miltenyi Biotec). The CD4 positive naive T cells were plated in a 96 well plate (3×10^5 cells/well), stimulated (37° C. for culture) with anti-mouse CD3ε antibody (10 μg/mL, solid phase) and anti-CD28 antibody (5 μg/mL) for 4 days in the presence of anti-IFN-γ antibody, anti-IL-4 antibody, anti-IL-2 antibody, IL-6, TGF-β and IL-23 to allow for differentiation into Th17 cells. The compound was dissolved in DMSO and then added. The cells were cultured under these conditions for 4 days, the concentration of IL-17A in the culture supernatant obtained by centrifugation was measured by ELISA, and differentiation of the Th17 cells was evaluated.

For test [5] the test system is unchanged. The test can be described thus: Human Th17 cell differentiation induction test. The conditions noted are these: 144 h, test compound 10 μM, 6 days, ELISA, read-out: inhibitory rate (IL-17A in culture supernatant, Th17 differentiation). The format is cell-based. As to the method: Using peripheral blood mononuclear cells (PBMC) collected from human peripheral blood by a density gradient centrifugation method, CD4 positive naive T cells were collected. The CD4 positive naive T cells were plated in a 96 well plate (2×10^4 cells/well), and stimulated (37° C. for culture) with anti-CD3/28Ab Dynabeads for 6 days in the presence of IL-1β, IL-6, IL-23, TGFβ, anti-IFNγ Ab, anti-IL-4 Ab to allow for differentiation into Th17 cells. The compound was dissolved in DMSO and then added. After culture for 6 days, the concentration of IL-17A in the culture supernatant obtained by centrifugation was measured by ELISA, and differentiation of the Th17 cells was evaluated.
Background: An ELISA detects its analyte on a solid surface through an enzyme-linked reagent.

The subject of test [6] is Peripheral blood mononuclear cells (PBMC). The test can be described thus: Human PBMC IL17 production test. As to conditions: 72 h; test compound 10 μM; human PBMC stimulated by anti-CD3/CD28 Dynabeads; 3 days; ELISA; read-out: inhibitory rate (IL-17A in culture supernatant, IL-17 production). The test is classed as cell-based. The protocol:
Peripheral blood mononuclear cells (PBMC) collected from human peripheral blood by a density gradient centrifugation method were stimulated by Dynabeads (registered trade mark; anti-CD3/CD28 antibody) and cultured at 37° C. for 3 days. The compound was dissolved in DMSO and then added. After culture for 3 days under such conditions, the concentration of IL-17A in the culture supernatant obtained by centrifugation was measured by ELISA, and the activity of the compound on IL-17 production was evaluated.

In the case of `COc1ccc(-c2c(-c3nc(CC(=O)NCC4CCOCC4)cs3)cnn2C(C)(C)C)cc1` [Example 39, 2-{2-[1-tert-butyl-5-(4-methoxyphenyl)-1H-pyrazol-4-yl]-1,3-thiazol-4-yl}-N-(tetrahydro-2H-pyran-4-ylmethyl)acetamide], the inhibition at 1 µM at RORγt [1] stood at 98.7%; at RORγt [2], 101%. For the same compound, on RORγt [3], the inhibition at 3 µM was found to be 101%. Also, the values for the inhibition at 10 µM in test [4], in test [5] and in test [6] were 95%, 100% and 91.3%, respectively.
